Laboratory results published in PubChem BioAssay (NCI).
“And” between values parts separate entries of the source, which are not always exact repeats. Equal values may be shown once.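 Following 48 hours of exposure in 96-well plates, responses at five concentrations were used to interpolate endpoints linearly. GI50 = concentration required for 50% inhibition of growth. TGI denotes the concentration required for complete inhibition of growth.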

Key:
Assay in all cases: NCI tumour cell line growth inhibition, 48 h
OVCAR-5 ovarian = system: OVCAR-5 ovarian
MDA-MB-435 = system: MDA-MB-435
SK-MEL-28 melanoma = system: SK-MEL-28 melanoma
SF-295 CNS = system: SF-295 CNS
HCC-2998 colon = system: HCC-2998 colon
SW-620 colon = system: SW-620 colon
SK-OV-3 ovarian = system: SK-OV-3 ovarian
NCI-H226 lung = system: NCI-H226 lung
CCRF-CEM leukemia = system: CCRF-CEM leukemia
NCI-H522 lung = system: NCI-H522 lung

Compound | TGI (OVCAR-5 ovarian) | GI50 (MDA-MB-435) | TGI (MDA-MB-435) | GI50 (SK-MEL-28 melanoma) | TGI (SF-295 CNS) | GI50 (HCC-2998 colon) | TGI (HCC-2998 colon) | TGI (SW-620 colon) | TGI (SK-MEL-28 melanoma) | TGI (SK-OV-3 ovarian) | GI50 (NCI-H226 lung) | TGI (NCI-H226 lung) | GI50 (OVCAR-5 ovarian) | GI50 (SK-OV-3 ovarian) | GI50 (SF-295 CNS) | GI50 (SW-620 colon) | GI50 (CCRF-CEM leukemia) | TGI (CCRF-CEM leukemia) | GI50 (NCI-H522 lung) | TGI (NCI-H522 lung)
CC1OC(O[C@@H]2C=C3CC[C@@H]4[C@H](CC[C@]5(C)[C@@H](c6ccc(=O)oc6)CC[C@]45O)[C@@]3(C)CC2)C(O)C(O)C1O (stereo partly drawn) | 0.0115 µM and 0.0318 µM | 0.000482 µM | 0.013 µM | 0.00281 µM | 0.003 µM and 0.000407 µM | 0.00159 µM | 0.003 µM | – | – | – | – | – | – | – | – | – | – | – | – | –
COc1cc([C@@H]2c3cc4c(cc3[C@@H](OC3OC5COC(C)OC5C(O)C3O)[C@H]3COC(=O)[C@H]23)OCO4)cc(OC)c1O (stereo partly drawn) | 64.2 µM and 121 µM and 169 µM | – | 19 µM and 50 µM | – | – | – | – | 54.6 µM and 159 µM | 125 µM and 363 µM and 198 µM | 62.3 µM and 500 µM and 120 µM | – | – | – | – | – | – | – | – | – | –
Cc1ccc2nc(CN(CCN(Cc3nc4ccc(C)cc4[nH]3)Cc3nc4ccc(C)cc4[nH]3)Cc3nc4ccc(C)cc4[nH]3)[nH]c2c1 | 3 µM | 1.62 µM | 2.98 µM | 1.75 µM | 2.89 µM | 1.74 µM | 3.18 µM | – | 3.15 µM | 3.35 µM | 1.82 µM | 3.21 µM | 1.63 µM | 1.88 µM | 1.55 µM | – | – | – | – | –
COc1ccc(/C=C\c2cc(OC)c(OC)c(OC)c2)cc1NC(=O)/C=C/c1cc(OC)c(OC)c(OC)c1 | > 100 µM | – | – | 3.42 µM | – | 3.73 µM | > 100 µM | > 100 µM | > 100 µM | – | 4.15 µM | > 100 µM | 5.74 µM | – | – | 5.2 µM | 4.16 µM | > 100 µM | 2.51 µM | > 100 µM
CN(C(=O)C12C3C4C1C1C2C3C41C#N)C(C)(C)C (stereo not drawn) | > 100 µM | – | – | – | > 100 µM | – | > 100 µM | > 100 µM | > 100 µM | > 100 µM | – | > 100 µM | – | – | – | – | – | > 100 µM | – | > 100 µM
CN(C)NC(=O)NC12CC3CC(CC(C3)C1)C2 | > 100 µM | – | – | – | > 100 µM | – | – | > 100 µM | > 10 µM | > 100 µM | – | > 100 µM | – | – | – | – | – | > 100 µM | – | > 100 µM
COc1ccc2c(Cl)cc(NC(=S)Nc3ccccc3)nc2c1 | 99.6 µM | – | 34.6 µM | – | > 100 µM | – | – | 69.1 µM | 97.9 µM | 61.1 µM | – | > 100 µM | – | – | – | – | – | 90.9 µM | – | 34.8 µM
CSCSCC(CO)NC(=O)/C=C/c1c(C)[nH]c(=O)[nH]c1=O (stereo not drawn) | > 100 µM | – | – | – | > 100 µM | – | > 100 µM | > 100 µM | > 100 µM | – | – | > 100 µM | – | – | – | – | – | > 100 µM | – | –
CCOC(=O)C(=O)CC(=O)C(Br)C(Br)c1ccc(Cl)cc1 (stereo not drawn) | > 100 µM | – | – | – | > 100 µM | – | > 100 µM | > 100 µM | 72.3 µM | > 100 µM | – | – | – | – | – | – | – | 29.3 µM | – | 45.7 µM
Cc1nc2ccccc2c(=O)n1/N=C(\N=Nc1cc(Cl)ccc1Cl)c1ccc(N(C)C)cc1 | – | – | – | – | – | – | – | > 100 µM | > 100 µM | > 100 µM | – | – | – | – | – | – | – | > 100 µM | – | 92.3 µM
CCNC(=O)O/N=C1\CCC2[C@@H]3CC=C4C[C@@H](OC(=O)NCC)CC[C@]4(C)C3CC[C@]12C (stereo partly drawn) | 17.1 µM | – | – | – | 11.4 µM | – | 17.7 µM | 16.7 µM | 12.1 µM | 19.7 µM | – | – | – | – | – | – | – | – | – | 10.6 µM
C(=C\c1ccc2ccccc2c1Nc1ccccc1)/c1ccccc1 | > 100 µM | – | – | – | > 100 µM | – | > 100 µM | > 100 µM | > 88.2 µM | > 83 µM | – | > 100 µM | – | – | – | – | – | 30.5 µM | – | > 100 µM
COc1cc(C(=O)/C=C/c2c[nH]c3ccccc23)cc(OC)c1OC | > 100 µM | – | – | 0.494 µM | – | 0.0959 µM | 7.59 µM | > 100 µM | 41.9 µM | 31.1 µM | 0.397 µM | 26.8 µM | 0.0728 µM | 0.0438 µM | – | < 0.0123 µM | 0.0254 µM | 14 µM | < 0.0107 µM | 0.0391 µM
CCn1c(=O)nc2n(-c3ccc(SC)cc3)c3ccccc3nc-2c1=O | > 100 µM | – | – | – | > 100 µM | – | > 100 µM | > 100 µM | > 100 µM | > 100 µM | – | > 100 µM | – | – | – | – | – | > 100 µM | – | > 100 µM
CN(N=O)c1ccc(/C=C/c2ccnc3ccccc23)cc1 | > 100 µM | – | > 100 µM | – | > 100 µM | – | – | > 100 µM | > 100 µM | > 100 µM | – | > 100 µM | – | – | – | – | – | > 100 µM | – | > 100 µM
O=C(CC1(O)C(=O)Nc2ccccc21)c1cccc(O)c1 (stereo not drawn) | > 100 µM | – | – | – | > 100 µM | – | – | > 100 µM | > 100 µM | > 100 µM | – | > 100 µM | – | – | – | – | – | – | – | > 100 µM
CC(=O)O[C@H]1CSC[C@@H](OC(C)=O)C1[N+](=O)[O-] (stereo partly drawn) | > 100 µM | – | – | – | > 100 µM | – | > 100 µM | 74.3 µM | 69.4 µM | > 100 µM | – | > 100 µM | – | – | – | – | – | 44.4 µM | – | 36.8 µM
Nc1nc(N)c(CCCCc2ccc([N+](=O)[O-])cc2)c(N)n1 | > 100 µM | – | – | – | > 100 µM | – | > 100 µM | > 100 µM | – | > 100 µM | – | > 100 µM | – | – | – | – | – | > 100 µM | – | > 100 µM
COc1cc(O)c(C(=O)C2Cc3ccccc32)c(OC)c1 (stereo not drawn) | > 100 µM | – | – | – | > 100 µM | – | > 100 µM | > 100 µM | – | > 100 µM | – | 86 µM | – | – | – | – | – | > 100 µM | – | > 100 µM
CCOC(=O)C(Oc1ccc(OC)c2c1C(=O)CCC2)c1ccccc1 (stereo not drawn) | > 100 µM | – | – | – | > 100 µM | – | > 100 µM | > 100 µM | > 100 µM | > 100 µM | – | – | – | – | – | – | – | > 100 µM | – | > 100 µM
C#Cc1c(C)c(/C=C/C(C)=C\C(=O)OC)n(C)c1C | > 100 µM | – | – | – | > 100 µM | – | > 100 µM | > 100 µM | – | > 100 µM | – | > 100 µM | – | – | – | – | – | > 100 µM | – | > 100 µM
CCN(CC)c1ccc(N=Nc2ccc(-c3nc4cccnc4s3)cc2)cc1 | > 100 µM | – | – | – | > 100 µM | – | > 100 µM | > 100 µM | > 100 µM | > 100 µM | – | > 100 µM | – | – | – | – | – | > 100 µM | – | > 100 µM
